According to patent US20040106671A1, “Remedies for vesical hyperesthesia” (priority 2001, published 2004):

Key:
[1] = tested on: Hypersensitivity of Bladder with Cystitis; experiment: Inhibitory activity on hypersensitivity of bladder with cystitis (cystometry, xylene-induced cystitis); format: in vivo, Male SD rats; conditions: oral, rats with xylene-induced cystitis; for pre-micturition contractions (amplitude, relative value, value before administration defined as 100): 0.05 mg/mL suspension at 2 mL/kg, average ± standard error, n = 13
Protocol: The experiment was carried out by referring to the method of Morikawa, et al. [Jpn. J. Pharmacol., Vol. 52, pp. 587-595 (1990)]. Male SD rats weighing from 250 to 400 g (supplied by Japan SLC) were used in the test. Five to seven animals of these rats were put in each metal cage and reared by allowing them to freely take commercially available chow and water, in an animal room at room temperature between 19 and 25° C. and humidity between […] and 70% under illumination for 12 hours (from 7:00 a.m. to 7:00 p.m.) per day. The rats were subjected to bladder catheterization. Under anesthesia with pentobarbital sodium, the bladder was exposed by midline incision of the abdomen. […] The bladder catheter was fixed with a surgical silk ligature and indwelled. The other end of the catheter was exposed subcutaneously from the back of the neck, plugged and then fixed to the skin with a surgical thread. Two to three days after the bladder catheterization, a cystometry test was performed. The rats were put in a Bollman cage (Natsume Seisakusho Co., Ltd.) and a three-way cock was connected to the bladder catheter, one end of the cock was connected to a pressure transducer (Nihon Kohden Corp.) and the other end was connected to a 50-mL syringe (Terumo Corp.) arranged to an infusion pump (Harvard Apparatus, Inc.) for physiological saline infusion. The intravesical pressure signal from the pressure transducer was amplified with a strain pressure amplifier (AP-601G, Nihon Kohden Corp.) connected thereto, and was recorded on a thermal array recorder (RTA-1200, Nihon Kohden Corp.) via a polygraph system (RMP-6008, Nihon Kohden Corp.) containing the above amplifier. After the completion of the preparation for the measurement, a room temperature physiological saline was continuously infused into the bladder at a flow rate of 3 mL/h, and the intravesical pressure was measured to observe micturition intervals. After the micturition intervals became constant, the intravesical pressure waveform was recorded for one hour. Then, saline infusion was stopped, and 0.5 mL of xylene (Wako Pure Chemical Industries, Ltd.) was infused into the bladder through the catheter and was removed about 10 seconds later to cause cystitis. After 30 minutes, the continuous infusion of saline was started again and the intravesical pressure was monitored for about one hour to obtain the value before dosing. The test compound was suspended in a 0.5 w/v % aqueous solution of methylcellulose at a concentration of 0.05 mg/mL. The suspension or a vehicle was orally administered to the animals at a volume of 2 mL/kg. After the administration of the test compound, the intravesical pressure waveform was recorded for 4.5 hours. […] Pre-micturition contraction was measured as an index of bladder hypersensitivity. The values of pre-micturition contractions were read from the intravesical pressure waveform recorded on a chart paper using a digitizer (KD3220, Graphtec Corporation) controlled by a computer (PC-9801NS/R, NEC), and saved as a WJ2 file on Lotus 1-2-3 R2.5J (Lotus). […] The amplitude of pre-micturition contractions was expressed as a relative value when the value before the drug administration that was defined as 100, and the average ±standard error was calculated for each group.

dd male mice = experiment: Acute toxicity test; format: in vivo; conditions: oral administration, mortality on the seventh day after the administration
Protocol: The test compound was administered orally or intraperitoneally to 3 animals per group of dd male mice (body weight: 20±1 g). The minimum lethal dose (MLD) value was obtained by observing mortality on the seventh day after the administration.

**Q.** Which results are given for C[C@](O)(C(=O)Nc1cccc2c1C(=O)c1sccc1CS2(=O)=O)C(F)(F)F [Compound 1, (S)-(+)-N-(5,5-dioxido-10-oxo-4,10-dihydrothieno[3,2-c][1]benzothiepin-9-yl)-3,3,3-trifluoro-2-hydroxy-2-methylpropanamide]?
**A.** pre-micturition contractions (amplitude, relative value, value before administration defined as 100) ([1]; After 1 hour): 71.5 ± 6.5%; pre-micturition contractions (amplitude, relative value, value before administration defined as 100) ([1]; After 2 hours): 64.7 ± 6.8 %; pre-micturition contractions (amplitude, relative value, value before administration defined as 100) ([1]; After 3 hours): 61.7 ± 6.8 %; pre-micturition contractions (amplitude, relative value, value before administration defined as 100) ([1]; After 4 hours): 61.6 ± 5.4 %; effect on pre-micturition contractions (in words) ([1]; Test Example 1): inhibited pre-micturition contractions; minimum lethal dose (MLD) (dd male mice): > 1000 mg/kg
